Measured values taken from PubChem BioAssay AID1671325.
pIC50: −log10 of the molar value.

Target: Mitogen-activated protein kinase 11 (Homo sapiens) (UniProt Q15759)
Test: PubChem AID 1671325
Conditions: Z'-LYTE FRET kinase activity, recombinant MAPK11

Chain of Mitogen-activated protein kinase 11 (Homo sapiens) (Q15759 whole entry, looked up): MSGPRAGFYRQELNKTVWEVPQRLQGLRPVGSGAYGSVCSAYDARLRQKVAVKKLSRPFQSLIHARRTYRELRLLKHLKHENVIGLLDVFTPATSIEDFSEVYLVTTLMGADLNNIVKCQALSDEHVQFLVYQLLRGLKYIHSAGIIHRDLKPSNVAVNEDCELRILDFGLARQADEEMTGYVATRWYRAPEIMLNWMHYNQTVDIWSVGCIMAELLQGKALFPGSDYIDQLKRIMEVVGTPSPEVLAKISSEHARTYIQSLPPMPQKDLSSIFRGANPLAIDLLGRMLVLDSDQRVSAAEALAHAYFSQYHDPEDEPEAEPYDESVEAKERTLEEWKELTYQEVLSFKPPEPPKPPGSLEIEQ

- pIC50: 5.45
SMILES: CC(C)(C)n1nc(-c2ccc(Cl)cc2)c2c(N)ncnc21
